# Assay results taken from patent publication US20250325508A1, “MODULATORS OF PROTEASOME DYNAMICS AND/OR FUNCTION, COMPOSITIONS, METHODS, AND THERAPEUTIC USES THEREOF” (TECHNION RESEARCH & DEVELOPMENT FOUNDATION LIMITED, priority 2022, published 2025).
# Assays:
# Type in all cases: cell-based, human
# 26S proteasome = test: Proteasome subcellular localization in cultured cells (immunofluorescence, cell fractionation/Western blot)
# Method: Cells were incubated for 20 min in fractionation buffer [20 mM HEPES pH 7.3, 10 mM KCl, 5 mM ATP, 5 mM MgCl2, and protease inhibitor cocktail (Roche)], followed by the addition of Digitonin (0.01%). They were then mixed thoroughly and centrifuged at 1,000×g for 5 min. The supernatant was collected as cytosolic fraction, and the pellet was washed with fractionation buffer supplemented with NP-40 (0.05%) and centrifuged, and the pellet (nuclei) was resuspended in fractionation buffer supplemented with sodium deoxycholate (0.5%), followed by its sonication.
# Cells were washed twice with ice cold PBS and scraped into lysis buffer (50 mM Tris-HCl, pH 7.4, 130 mM NaCl, 0.5% NP-40) supplemented with freshly added protease inhibitor cocktail, 5 mM ATP, 10 mM iodoacetamide, and 5 mM N-ethyl maleimide. Protein concentration was measured by the BCA assay according to the manufacturer's instructions (Pierce, Rockford, IL). 30 μg of cellular protein were resolved via SDS-PAGE, transferred to a nitrocellulose membrane and immunoblotted with the appropriate antibody.
# Cells were seeded on glass cover slips for 36 h. Following the indicated treatments, they were fixed with 4% PFA for 15 min, washed with phosphate-buffered saline (PBS) and incubated in PBS containing 10% goat serum for 1 h at room temperature, followed by 2 h incubation with the indicated primary antibody. Following extensive wash with PBS, the fixed cells were incubated with the relevant secondary antibody for 1 h, washed and mounted. Images were acquired using Zeiss LSM 700 confocal microscope (Zeiss, Oberkochen, Germany). […]
# HeLa cells [1] = test: Amino acids level measurement (LC-MS)
# Method: Metabolic analysis was carried out as previously described [G. M. MacKay et al., 1st Ed. (Elsevier Inc., 2015)]. Briefly, cells were rapidly washed 3 times with ice-cold PBS and extracted with an aqueous solution of 50% Methanol, and 30% Acetonitrile. Samples were centrifuged at 16,000×g for 10 min at 4° C., and the supernatants were analyzed using HPLC-MS (Q-Exactive Orbitrap Mass Spectrometer (Thermo Scientific) coupled to Thermo Scientific UltiMate 3000 HPLC system). The HPLC setup consisted of a ZIC-PHILIC column (SeQuant, 150×2.1 mm, 5 μm, Merck) with a ZIC-PHILIC guard column (SeQuant, 20×2.1 mm). The aqueous mobile phase solvent was 20 mM ammonium carbonate adjusted to pH 9.4 with 0.1% ammonium hydroxide. The organic mobile phase was acetonitrile. Amino acids and other metabolites were separated over a 15 min linear gradient from 80% organic to 80% aqueous. The column temperature was 45° C., the flow rate 200 μl/min, and the run time 27 min. All metabolites were detected across a mass range of 75-1,000 m/z using the Q-Exactive mass spectrometer at a resolution of 35,000 (at 200 m/z) with electrospray ionization and polarity switching mode. Mass accuracy obtained for all metabolites was below 5 ppm. Data were acquired with Thermo Xcalibur software. The peak areas of different amino acids were determined using Thermo TraceFinder software through which metabolites were identified by the exact mass of the singly charged ion and the known retention time on the HPLC column. Commercially available standard compounds had been analyzed before to determine ion masses and retention times on the ZIC-PHILIC column. Protein quantitation based on the Lowry method was performed for normalization. The figure presents mean+/−SD of three replicates.
# HeLa cells [2] = test: Degradation of radiolabeled proteins; settings: short-term starvation
# Method: Cells were labeled with [^35S]-methionine and cysteine (20 μCi/ml) for 16 h. This was followed by extensive washing and further incubation in a medium containing 2 mM of the two unlabeled amino acids for 8 h. Degradation rates were assessed by determining the release of labeled amino acids to the incubation medium relative to the radioactivity remained in the cellular proteins (using Trichloroacetic acid precipitation to separate between the two) [R. Gropper et al., Biomed Biochim Acta 50, 321-332 (1991)]. The figure presents mean+/−SD and Student's T-Test p-values of three replicates.
# Ubiquitin conjugates = Ubiquitin conjugates levels (in-cell Western); settings: stress, HeLa cells
# Method: Cells were seeded in a 96-well plate at a density of 15,000 cells/well. ˜36 h later, cells were treated as described and were visualized live, using high-throughput fluorescence microscopy (IXM-C, Molecular Devices) under a controlled environment (21% O2, 5% CO2, 37° C.). Hoechst 33342 was used to stain nuclei of all cells, and SYTOX™ (Thermo) was used to stain dead cells. Data analysis was performed using the Live/Dead module of the MetaXpress software (Molecular Devices). […] For ubiquitination, the inventors used in-cell Western blotting using an anti-Ub-conj [O. Braten et al., Proc. Natl. Acad. Sci. 113, E4639-47 (2016), and a secondary fluorescent antibody. Intensities were quantified using Li-Cor imager and software (Odyssey).
structure (smiles),measurement,setting,value
CCC(=C/[C@H](C)C/C=C/C(C)=C/[C@@H](C)C(=O)[C@@H](C)[C@H](O)[C@@H](C)C/C(C)=C/C(=O)O)/C=C/[C@@H]1OC(=O)C=C[C@@H]1C [Leptomycin B],proteasome translocation from the nucleus to the cytosol,"26S proteasome; amino acid starvation, substance added to starvation medium",inhibition of the translocation
same,proteasome localization,"26S proteasome; non-stressed / well-fed cells, complete medium",nuclear accumulation of the proteasome
same,gain in amino acids produced by Torin1,HeLa cells [1]; Torin1 plus LMB,significantly inhibited the gain in amino acids produced by Torin1
same,level of Glu,HeLa cells [1]; addition of LMB to Torin1-treated cells,unaffected
same,protein breakdown (degradation of radiolabeled proteins),HeLa cells [2],near annulment of protein breakdown stimulated by short-term starvation
same,degradation and depletion of ubiquitin adducts,Ubiquitin conjugates,inhibited degradation and depletion of ubiquitin adducts
